Values quoted from earlier work, collected in patent US20200253945A1, “DELAYED RELEASE DEFERIPRONE TABLETS AND METHODS OF USING THE SAME” (Chiesi Farmaceutici S.p.A., priority 2017, published 2020).

How the values were obtained:
[1] = patients who begin therapy with deferiprone
[2] = in vivo

- patients with gastric distress [1]: 15-30%
- elimination half-life [2]: about 2 hours
SMILES: Cc1c(O)c(=O)ccn1C [deferiprone, Deferiprone]
